According to patent US20020058708A1, “Compositions containing hypotriglyceridemically active stilbenoids” (priority 2000, published 2002):

Key:
[1] = reported by Arichi et al. 1982; cited from earlier work
[2] = tested on: fat fed, STZ treated male Sprague Dawley rats; assay: In vivo hypotriglyceridemic activity: serum triglyceride levels in fat-fed STZ treated rats; set-up: species or system rat; details: 250 mg/kg body weight q.d.
Description: This example illustrates the effectiveness of the stilbenoids of formula (I) in reducing serum triglyceride levels in fat-fed STZ treated male Sprague Dawley rats, i.e., an art-recognized model of hypertriglyceridemia.
This example illustrates the effectiveness of the stilbenoids of formula (I), e.g. longistyline A-2-carboxylic acid (Compound A) in reducing serum triglyceride levels in fat fed, STZ treated male Sprague Dawley rats, i.e., an art recognized model of hypertriglyceridemia. […]
Blood samples from tail snips bleeds were collected six hours after the dose on day one, and three (3) and six (6) hours after the administration of the dose on days 2 through 4 into M brand (Becton Dickinson, Franklin Lakes, N.J.) serum separator tubes, and centrifuged at 12,000 rpm for 10 minutes. Serum was removed and triglyceride levels were measured using enzymatic […] methods (M. W. McGowan, et al., Clin. Chem. 29, 538 (1983) and P Trinder, Ann. Clin. Biochem. 6, 24 (1969)) using Sigma Diagnostic Kits, Sigma Chemical Company, St. Louis, Mo.
Triglyceride levels are expressed as the mean ±SEM. Data were analyzed by one-way analysis of variance (ANOVA), followed by post-hoc Fisher's protected least squares difference (PLSD) tests. […]

[3] = Daily mean body weight of treated fat fed, STZ treated rats; type: in vivo, rat; details: 250 mg/kg q.d.; FIG. 3
Method: (§1) FIG. 3 is a line graph showing the mean body weight […] in fat fed, STZ treated rats administered with GELUCIRE™ vehicle only; and 3-hydroxy-4-(3-methyl-2-butenyl)-5-methoxystilbene-2-carboxylic acid (Compound A). -∘- represents vehicle; and -▪- represents Compound A administered at 250 mg/kg q.d. Animals were administered the vehicle and compounds at 24, 48, 72 and 96 h, and serum triglyceride levels were measured at 0, 30, 51, 54, 75 and 80 hours after the oral administration. All data points N=8. *P<0.05 (analysis of variance (ANOVA), one factor).
(§2) Male Sprague Dawley rats arrival from Charles River Laboratories, Hollister, Calif., were fed a high fat (20% by weight) diet (TD 78463) obtained from Harlan Teklad, Madison, Wis., which was stored at 4° C. prior to use. Administration of a high fed diet is a well-known method of inducing hypertriglyceridemia in rats.
(§3) Compound A formulations were prepared fresh daily. The appropriate amount of Compound A in GELUCIRE™ was administered by oral gavage at a volume of 2.5 ml/kg of body weight. Animals were fasted at 8:00 am each day.

[4] = Daily mean food consumption of treated fat fed, STZ treated rats; type: in vivo, rat; details: 250 mg/kg q.d.; FIG. 4
Method: as §1, with “FIG. 4” for “FIG. 3”, “mean food consumption” for “mean body weight”
as §2, §3

Row | Food intake (daily mean food consumption) [4] | SMILES | Liver lipid levels [1] | Serum triglyceride levels [1] | Serum triglyceride (TG) levels compared with vehicle only ([2]; oral gavage in GELUCIRE vehicle, at each of the time points, p<0.05, FIG. 2) | Mean TG levels compared with GELUCIRE vehicle treatment group at individual sampling times ([2]; from day 2 through the end of treatment) | Gain in rat body weight over the course of treatment [3]
1 | – | OC[C@H]1O[C@@H](Oc2cc(O)cc(/C=C/c3ccc(O)cc3)c2)[C@H](O)[C@@H](O)[C@@H]1O [Piceid, 3,4′,5-trihydroxystilbene-3-O-β-D-glucopyranoside] | lower | lower | – | – | –
2 | – | OC[C@H]1OC(Oc2c(O)cc(O)cc2C=Cc2ccc(O)cc2)[C@H](O)[C@@H](O)[C@@H]1O (stereo partly drawn) [2,3,5,4′-tetrahydroxy stilbene-2-O-D-glucoside] | – | reduce | – | – | –
3 | not effected by the treatments | COc1cc(/C=C/c2ccccc2)c(C(=O)O)c(O)c1CC=C(C)C [Compound A, 3-hydroxy-4-(3-methyl-2-butenyl)-5-methoxystilbene-2-carboxylic acid] | – | – | significantly lower | significantly lower | normal and similar among the treatment groups
